Data on 2 substances can be found in US7666994B2, “Cloning and expression of gonadotropin-releasing hormone (GnRH) receptors” (University of New Hampshire, priority 2004, dated 2010).

Ends that are not written are not given here.

Assay [1] has as its system lamprey GnRH receptor. Briefly: cAMP assay in COS7 cells transiently transfected with the lamprey GnRH receptor. Conditions: for cAMP response on stimulation of transiently transfected COS7 cells: in words; for LogEC50, cAMP accumulation: mean±SEM, n=3, COS7 cells transiently transfected with lamprey GnRH receptor, 10^-10M to 10^-4M; for cAMP accumulation in cells transfected with blank pcDNA3.1 vector: negative control cells without receptor, data not shown. Type of assay: cell-based, sea lamprey, Petromyzon marinus. Here is the method:
(§1) The coding region of the lamprey GnRH-R was inserted into the pcDNA3.1 HisTOPO mammalian expression vector (Carlsbad, Calif.) (INVITROGEN, Carlsbad, Calif.). COS7 cells were cultured in 10% fetal bovine serum (FBS) in Dulbeccos Modified Eagles Medium (DMEM) (INVITROGEN), and were maintained at 37° C. in 5% CO 2. The day before transfection, 5×10^5 cells were seeded in 60 mm culture plates. Transfection was performed using 5 μg of vector and 15 μL of Lipofectamine (INVITROGEN) in 2.4 mL total volume in Opti-MEM-I (Invitrogen) and an incubation time of 5 hours at 37° C. in 5% CO 2, after which, 2.5 mL of 20% FBS in DMEM was added and cultures were grown overnight.
(§2) Twenty-four hours after transfection (day 2), cells were trypsinized and 96-well plates were seeded with 5×10^4 cells/well, and cultures were grown overnight. Day 3, cells were stimulated with either control (ID buffer −1.0 mM 3-isobutyl-1-methylxanthine in DMEM) or varying concentrations (10^-10M to 10^-4M) of either lamprey GnRH-I or lamprey GnRH-III (in ID buffer). cAMP assays were performed using the BIOTRAK Enzymeimmunoassay system (AMERSHAM), per the manufacturers instructions. Treatments were performed in triplicate in three independent experiments, while cells transfected with blank vector were used as negative controls. Analyses were performed using GRAPHPAD (Prism, San Diego, Calif.). Inositol Phosphate Assay The inositol phosphate (IP) stimulation and extraction protocol used was adapted from previous studies. Briefly, 24 hours after transfection, cells were trypsinized, and seeded in 12-well plates at approximately 1.5×10^5 cells/well. At hour 72 cells were washed in PBS and incubated in 1 mL of 2% dialyzed fetal bovine serum and 2 μCi/mL myo […] inositol (AMERSHAM) in medium 199 (INVITROGEN). At hour 96 cells were washed 2 times with IP buffer (1×HBSS, 20 mM HEPES, 20 mM LiCL), and were pre-incubated in IP buffer for 15 minutes at 37° C., followed by stimulation with concentrations of lamprey GnRH-I or lamprey GnRH III, in IP buffer, ranging from 10^-6M to 10-11 M, for 1 hour at 37° C. with gentle shaking. The reactions were stopped with the addition of 0.2 mL of pre-chilled 20% perchloric acid, and the plates were placed on ice for 30 minutes. The wells were scraped and the extracts were transferred to sterile 1.5 mL tubes and neutralized with 5M KOH, followed by a 1 hour incubation at 4° C. Tubes were centrifuged at 5,000 rpm at 4° C. for 15 minutes, and 1.2 mL of supernatant was transferred to a new sterile 1.5 mL tube. IPs (IP, IP2 and IP3) were isolated by ion exchange chromatography using AGlX8-200 resin (Bio-Rad) in formate form. IPs were eluted with 1 M ammonium formate/0.1 M formic acid, samples were counted by liquid scintillation and data were analyzed using Prism (GRAPHPAD). Treatments were performed in triplicate in three independent experiments, and cells transfected with blank vector and non-transfected cells were used as negative controls.
In general terms: Cyclic AMP is a second messenger, typically raised through Gs and lowered through Gi signalling.

For assay [2], the system named is incubated hemipituitaries of male rats. The note with it: cited from earlier work.
The subject of assay [3] is lamprey GnRH receptor. Briefly: Inositol phosphate (IP) assay in COS7 cells transiently transfected with the lamprey GnRH receptor. In kind it is cell-based, sea lamprey, Petromyzon marinus. The note with it: for IP response on stimulation of transiently transfected COS7 cells: in words; for LogEC50, IP accumulation: mean±SEM, n=3, COS7 cells transiently transfected with lamprey GnRH receptor, 10^-6M to 10-11 M, 1 hour at 37° C.; for IP accumulation in cells transfected with blank pcDNA3.1 vector: negative control cells without receptor, data not shown. Here is the method:
as §1, §2

For assay [4], the system named is lamprey GnRH receptor transcript. Briefly: Transcriptional regulation of the GnRH receptor transcript by lamprey GnRH-III (RT-PCR, densitometry normalized to β-actin). In kind it is in vivo, adult male lamprey. As to the method: Forty adult male lamprey's were injected intraperitoneally, twenty (20) with lamprey GnRH-III (200 μL of 0.45 μg/μL lamprey GnRH-III in 0.6% saline) and twenty (20) with control (200 μL of 0.6% saline). Ten (10) fish from each treatment group were sacrificed 24 hours after injection, and brains, pituitaries, kidneys, and testes were dissected and frozen in liquid nitrogen. Forty-eight hours after the first injection, the remaining animals were injected a second time with the same treatment they originally received. Twenty-four hours after the second injection, all remaining animals were sacrificed and tissues dissected and snap frozen. Total RNA was isolated from all tissues using Tri-Reagent (Molecular Research Center, Inc.), treated with RQ1 DNase (PROMEGA), and used as template for RT-PCR with the AccessQuick RT-PCR system (PROMEGA) using the same conditions as above, except 50 ng of template was used per reaction. Reactions were electrophoresed and visualized in 2% agarose gels. Parallel reactions were performed using primers to β-actin as a positive control. Receptor bands were normalized to β-actin and densitometry was performed using a Molecular Imager FX (BioRad, Hercules, Calif.) to determine effects of lamprey […] injection.

The mark [5] stands for this setting: relative to lamprey GnRH-I, one statement for both signaling systems.
Where [6] appears, read: after both one and two injections, densitometry normalized to β-actin, N=10.

lamprey GnRH receptor, sequence (as listed by the source): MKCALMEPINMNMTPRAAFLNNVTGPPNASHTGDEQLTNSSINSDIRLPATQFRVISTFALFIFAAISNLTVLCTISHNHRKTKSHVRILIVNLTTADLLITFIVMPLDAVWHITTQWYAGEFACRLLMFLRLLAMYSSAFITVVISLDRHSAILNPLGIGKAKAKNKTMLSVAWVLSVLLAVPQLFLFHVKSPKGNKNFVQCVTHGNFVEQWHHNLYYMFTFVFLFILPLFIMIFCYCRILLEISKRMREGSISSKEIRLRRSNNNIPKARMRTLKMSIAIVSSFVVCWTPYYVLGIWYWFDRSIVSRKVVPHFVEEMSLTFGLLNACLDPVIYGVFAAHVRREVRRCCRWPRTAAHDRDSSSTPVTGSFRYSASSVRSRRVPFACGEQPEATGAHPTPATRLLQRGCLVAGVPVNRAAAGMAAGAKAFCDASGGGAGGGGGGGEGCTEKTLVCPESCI

Regarding “lamprey GnRH-I: one of two hypothalamic GnRH isoforms (decapeptide) identified in the brain of the lamprey (QHYSLEWKPG; ends and bridges not checked)”, in the assay on lamprey GnRH receptor [1], the “cAMP response on stimulation of transiently transfected COS7 cells” value is reported as “dose dependant responses”; the “LogEC50, cAMP accumulation” value is −6.57±0.150; the “cAMP accumulation in cells transfected with blank pcDNA3.1 vector” value is recorded as “no response”. Also, in assay [2], the FSH-releasing action entry was “little activity” and the LH-releasing action entry was “little activity”. Besides, in the assay on lamprey GnRH receptor [3], the “IP response on stimulation of transiently transfected COS7 cells” value is recorded as “dose dependant responses”; the “LogEC50, IP accumulation” value is reported as −8.10±0.150; the “IP accumulation in cells transfected with blank pcDNA3.1 vector” value is on record as “no response”.
For “lamprey GnRH-III: hypothalamic lamprey GnRH isoform (decapeptide), Tyr instead of Trp in the third position”, in the assay on lamprey GnRH receptor [1], the “cAMP response on stimulation of transiently transfected COS7 cells” value is “dose dependant responses”; the “LogEC50, cAMP accumulation” value is on record as −8.29±0.090; the “cAMP accumulation in cells transfected with blank pcDNA3.1 vector” value is “no response”. The “logEC50 fold lower than that of lamprey GnRH-I, cAMP system” value in the assay on lamprey GnRH receptor [1] (setting [5]) was 40-50 fold. The FSH-releasing action result in assay [2] is given as “potent, dose-related”. In assay [4] (setting [6]), the “receptor transcript regulation in pituitary compared to control” value was “up-regulated” and the “receptor transcript regulation in testes compared to control” value is “down-regulated”. The “receptor transcript bands in pituitary versus control” value in assay [4] (after one injection, intraperitoneal, 24 hours after injection) was “twice as bright as control”. Moreover, the “GnRH receptor transcript level in testes versus control” value in assay [4] (after one injection, intraperitoneal, 24 hours after injection, control testes high levels) is “barely detectable levels”. Moreover, the “receptor transcript expression in brain” value in assay [4] (after one or two injections) is “not induced”. In assay [4] (two injections 48 hours apart, 24 hours after second injection), the “effects on receptor transcript in pituitary and testes after two injections, relative to one injection” value is recorded as “considerably lesser degree”. In the assay on lamprey GnRH receptor [3], the “IP response on stimulation of transiently transfected COS7 cells” value is on record as “dose dependant responses”; the “LogEC50, IP accumulation” value is on record as −9.37±0.243; the “IP accumulation in cells transfected with blank pcDNA3.1 vector” value is listed as “no response”. The “logEC50 fold lower than that of lamprey GnRH-I, IP system” value in the assay with lamprey GnRH receptor [3] (setting [5]) is recorded as 40-50 fold.
